This is an account of results in patent publication US4269940A, “Microbiological alkane oxidation process” (priority 1979, dated 1981).

Experiment [1] has as its system P(40) particulate fraction of Methylosinus sp. (CRL-15, NRRL B-11,202). The experiment can be described thus: Stoichiometry of propylene epoxidation and methane hydroxylation by P(40) fraction (Table XIV). It is filed as biochemical. To be noted: 5.0 μmoles substrate; for Product formed: gas chromatography; for O2 consumed: polarographic; for NADH oxidized: spectrophotometric. The protocol:
The particulate P(40) fraction of Methylosinus sp. (CRL-15, NRRL B-11,202) was used to determine the stoichiometry of hydroxylation and epoxidation reactions. The stoichiometry of methane or propylene-dependant NADH oxidation, oxygen consumption and product formation was approximately 1:1:1 Table XIV. This is consistent with methane or propylene oxygenation being catalyzed by a mono-oxygenase.
^a Under identical condition of reaction, the estimation of NADH
oxidized was carried out spectrophotometrically, the estimation of oxygen
consumed was measured polarographically, and the estimation of product
formed was carried out by gas chromatography.

For experiment [2] the test system is unchanged. Description: Oxidation of n-alkenes and n-alkanes by P(40) particulate fraction (Table X). It is filed as biochemical. The following applies: P(40) fraction, 30° C.
The test system is the same in experiment [3]. The experiment can be described thus: Substrate competition: effect of methane on propylene epoxidizing activity of P(40) fraction (Table XIII). It is filed as biochemical. The following applies: gaseous substrate as named. The protocol:
The oxidation of methane and propylene by particulate [(P)40 and (P)80] fractions and soluble [S(80)] fraction was measured at 30° C. by estimating the production of methanol and propylene oxide, respectively. The reaction mixtures contained in 1.0 ml: 150 mM potassium phosphate buffer, pH 7.0 containing 5 mM MgC2, 0.6 ml; 10 μmoles NADH, and cellular fraction.
Reaction mixtures were contained in 10 ml vials at 4° C. Vials were sealed with rubber caps. The gaseous phase in the vials was removed using vacuum and then was replaced with a gas mixture of methane or propylene and oxygen at a 1:1, v/v ratio. Oxidation of other gaseous n-alkanes and n-alkenes was examined as described above. For liquid substrates, 10 μ of substrate was used directly.
The hydroxylation of methane and the epoxidation of propylene by particulate fractions of methane-utilizing bacteria required oxygen and NADH. The question of whether the same or a similar enzyme was involved in the oxidation of both substrates was examined by substrate competition experiments. The experiment consisted of determining the effect of methane on the oxidation of propylene to propylene oxide by the P(40) particulate fraction of Methylosinus sp. (CRL-15, NRRL B-11,202).

Experiment [4] deals with purified secondary alcohol dehydrogenase. The experiment can be described thus: Substrate and electron acceptor specificity of purified yeast secondary alcohol dehydrogenase. It is filed as biochemical, Pichia sp. NRRL Y-11,328. The following applies: examined spectrophotometrically. The protocol: Large scale cultures of Pichia sp. NRRL Y-11,328 were grown with aeration at 30° C. in a 14-liter New Brunswick f fermentor in a mineral salt medium containing methanol (0.4%, v/v) as the sole carbon source. The cells (200 g., wet weight) were suspended in 50 mm sodium phosphate buffer, pH 7.0, containing 1 mM dithiothreitol (buffer A), and crude extracts were prepared as described previously. To the crude extracts, 18 ml. of protamine sulfate solution [2% solution in 0.1 M tris (hydroxymethyl) aminomethane (tris) base] was added dropwise with continuous stirring. After standing for 30 min., the extracts were centrifuged at 20,000 x g. for 60 min. The supernatant solution was fractioned with solid ammonium sulfate. Extracts were brought to 50% of saturation with respect to ammonium sulfate by addition of 313 g. of the salt per liter of extract. Precipitated proteins was removed by centrifugation, and 137 g. of ammonium sulfate was added per liter of the supernatant liquid to bring it to 70% of saturation. Material precipitating between 50 and 70% of saturation was collected by centrifugation and dissolved in buffer A. This preparation was dialyzed overnight against buffer A, and the dialyzed material was applied to a DEAE-cellulose column (5×40 cm) that had been equilibrated with buffer A. The sample was washed with 200 ml. of buffer A and eluted with 2 liters of buffer A that contained NaCl in a linear gradient running from a concentration of 0 to 0.5 M. Fractions of 15 ml. were collected. Fractions containing secondary alcohol dehydrogenase activity were pooled and were termed DEAE-cellulose eluate. The DEAE-cellulose eluate was concentrated by ammonium sulfate fractionation.
Secondary alcohol dehydrogenase activity was measured spectrophotometrically at 340 nm with a NAD^+ as an electron acceptor. The reaction mixture, in a total 3.0 ml., contained 50 mM phosphate buffer, pH 8.0, 5μmoles NAD^+, crude extracts, and substrate. The reactions were started by addition of 100 μof 0.1 M substrate and the rate of NAD^+ reduction was measured. Protein concentration was determined by the method of Lowry et al.
The substrate specificity of the purified secondary alcohol dehydrogenase was examined spectrophotometrically.

Experiment [5] has as its system cell-free extracts of strain ATCC 21439. To be noted: 30° C.
Description: The reaction mixtures 3 ml (1.0 mg protein) were incubated at 30°
C. for 10 min. (exp. 1) and for 20 min. (exp. 2) in the presence of 1.0
^a Determined gas chromatographically.
^b Determined fluorescence spectrophotometrically. Endogenous
consumption of NAD was corrected.
Experiment [6] deals with purified secondary alcohol dehydrogenase. The experiment can be described thus: Stoichiometry of isopropanol and sec-butanol oxidation by the purified secondary alcohol dehydrogenase (Table XXIV). It is filed as biochemical, Pichia sp. NRRL Y-11,328. The following applies: substrate 5.7 (isopropanol) or 6.0 (2-butanol) μmoles. On the procedure: ^a The estimation of NAD^+ reduced was measured
spectrophotometrically at 340 nm.
^b The estimation of products was detected by gas chromatography as
described in the methods.

Experiment [7] concerns secondary alcohol dehydrogenase (SADH). The experiment can be described thus: Substrate specificity and Michaelis constants of purified SADH. It is filed as biochemical, Pseudomonas sp. ATCC 21439. The protocol:
Secondary alcohol dehydrogenase (SADH) from an obligate methanol utilizer, Pseudomonas sp. ATCC 21439 was purified as follows. […] 0.05 M sodium phosphate buffer, pH 7.0 with 0.5mM dithiothretol (buffer A) and were disrupted sonically (5×1 min.). The crude extract was separated by centrifugation. The crude extract was heat-treated at 50° C. in a water bath for 10 minutes. The resulting precipitate was removed by centrifugation. To the supernatant solution, 25 ml of protamine sulfate solution (2% solution in 0.1 M Tris base) was added dropwise with continuous stirring. After standing for 30 minutes, the extract was centrifuged. The supernatant solution was fractionated with solid ammonium sulfate. […] This DEAE-cellulose eluate was concentrated by ammonium sulfate fractionation. Material precipitating between 30 and 50% ammonium sulfate saturation was collected by centrifugation and dialyzed overnight against A. This fraction was further washed and filtered through an Amicon unit with XM 50 membrane. The concentrated fraction (6 ml) inside the Amicon unit was applied to an Affi-Gel Blue column (0.8 cm ×18 cm) which had been equilibrated with buffer A for affinity chromatography. The column was washed overnight with buffer A (0.18 ml./min.) and then was eluted with buffer A containing 5 mM NAD. Each 1 ml. fraction was collected.
The purified secondary alcohol dehydrogenase enzyme (SADH) may be used directly for converting C3 -C6 secondary alcohols to the corresponding methyl ketones by the procedures described above; however, a source of NAD^+ must be added to the reaction medium. One can determine the NAD-linked secondary alcohol dehydrogenase activity with a fluorescence spectrophotometer (Perkin Elmer, Model MPF 44A) by following the formation of reduced NAD (Ex 340 nm, Em 460 nm). The assay system (3 ml.) will typically contain: sodium phosphate buffer pH 7.0, 150 μmol; NAD 1.0 μmol; a given amount of enzyme preparation; and 20 μmol secondary alcohol. The reaction is started by the addition of secondary alcohol. One unit of SADH enzyme activity represents the reduction of one nmole NAD per minute.

In experiment [8] the test system is cell suspensions of the strains of C1-utilizers tested. The experiment can be described thus: Production of methyl ketones from secondary alcohols by cell suspensions of C1-utilizers (strains tested). It is filed as cell-based. The following applies: cell suspensions of C1-utilizers. The source says: The substrate specificity for the oxidation of C3 -C6 secondary alcohols by the strains of C1 -utilizers was studied.

Experiment [9] has as its system cell-free particulate fractions derived from the methylotrophic microorganisms. Description: Inhibition of conversion of C3-C6 n-alkanes to sec. alcohols by cell-free particulate fractions. The following applies: oxygen and NADH. It is filed as biochemical. An excerpt:
The conditions for preparing the cell suspensions or the cell-free particulate fractions from methane-grown methylotroph microorganisms is the same as described above.

Like-named read-outs stand apart in the source and are kept apart here.

In experiment [1], `C` [Methane] returned a Product formed of 4.2 µmol, an O2 consumed of 4.6 µmol and an NADH oxidized of 4.8 µmol. Besides, in experiment [2], the “Rate of product formation (substrate to epoxide or alcohol)” value is 4.8 μ moles/hr/mg of protein. The Propylene oxide produced in experiment [3] was found to be 0 μmoles/hr/mg. protein.

For `CCC(C)O` (centres unmarked) [2-butanol], the “Oxidation by the purified yeast enzyme (in words)” value in experiment [4] is listed as “catalyzed the oxidation”. The 2-Butanol consumed in experiment [5] (experiment 1, 10 min.) is 260 nmol. In experiment [5] (experiment 2, 20 min.), this molecule showed a 2-Butanol consumed of 530 nmol and an NAD consumed of 540 nmol. For the same molecule, in experiment [6] (gas chromatography), the “Product formed (acetone or 2-butanone)” value came to 5.7 µmol. The “NAD^+ reduced” value in [6] (spectrophotometrically at 340 nm) came to 5.9 µmol. For the same molecule, the “Oxidation by purified SADH (in words)” value in [7] was “highest”. Besides, the “Rate of oxidation of secondary alcohols to methyl ketones” value in experiment [8] is “higher rates”.

As to `C=CC` [Propylene], in [1], the Product formed was 4.5 µmol, the O2 consumed was determined as 4.8 µmol and the NADH oxidized was found to be 5.0 µmol. For the same molecule, the “Inhibition of conversion of C3-C6 n-alkanes to sec. alcohols (in words)” value in experiment [9] was “inhibit”. The “Inhibition of conversion of C3-C6 n-alkanes to sec. alcohols (in words)” value in experiment [9] (listed as propylene) is on record as “inhibited”. Also, the “Rate of product formation (substrate to epoxide or alcohol)” value in experiment [2] is listed as 4.1 μ moles/hr/mg of protein. The molecule further came in with a Propylene oxide produced in [3] of 4.3 μmoles/hr/mg. protein.
